Laboratory results: patent US12678440B2, “Compositions and methods for treating misfolded protein ocular disorders” (CASE WESTERN RESERVE UNIVERSITY, priority 2020, dated 2026)

Experiments:
P23H rhodopsin = assay: Immunoblot of rhodopsin, MTX plus BafA1 or MG-132, NIH3T3 (RHO^P23H/GFP) cells; type: cell-based; settings: 10 μM MTX + 100 nM BafA1, 24 h
Method: Cells were seeded in 6-well plates at a density of 5×10^5 cells/well and cultured at 37° C. with 5% CO2 for 17 h. The medium was replaced with a fresh medium containing a corresponding concentration of compounds. After treatment for 24 h, cells collected and lysed in 150 μL PBS containing 0.1% SDS and complete protease inhibitor cocktail with 12 s of sonication on ice. Retina samples were lysed in 300 μL per retina of PBS containing 0.1% SDS and complete protease inhibitor cocktail under 24 s of sonication on ice. Protein concentrations were determined by measurements of OD280 nm using a Nanodrop spectrometer. To immunoblot rhodopsin, one hundred μg of total protein for NIH3T3 (RHO^P23H/GFP) cells, or twenty μg of total protein for NIH3T3 (RHO^WT/GFP) cells was loaded per well onto an SDS-PAGE gel. To detect other proteins, fifty μg of total protein was loaded per well. After separation by electrophoresis in 10% and 16% SDS-PAGE gels, proteins were transferred to a nitrocellulose membrane using a wet membrane electrotransfer cassette followed by blocking with 5% bovine serum albumin in PBS containing 0.05% Tween 20 for 1 h. The membranes were incubated with primary antibodies at 4° C. overnight following with appropriate secondary antibodies for 1 h at room temperature. […]

[1] = cited from earlier work

In the case of `CN(Cc1cnc2nc(N)nc(N)c2n1)c1ccc(C(=O)N[C@@H](CCC(=O)O)C(=O)O)cc1` [CL-009, N-[4-[[(2,4-diamino-6-pteridinyl)methyl]methylamino]benzoyl]-L-glutamic acid], the “MTX induced P23H rhodopsin clearance under BafA1 co-treatment (immunoblot)” value (P23H rhodopsin) is given as “abolished” and the water solubility [1] is given as “water-soluble”.
